# Entries after “also recorded” stand apart in the source; their conditions may differ.
# Experiments:
# [1] = toxicity / tolerability in diabetic rats; assay type: in vivo
# Procedure: The following five experimental groups (n=3 rats per group) were established: Non-diabetic control rats (NDC) treated by daily application of white petrolatum jelly (“vehicle”) for 7 days, diabetic rats (D group) treated daily with vehicle alone; diabetics treated by daily topical application of either a 1% (D+1%) or a 3% (D+3%) suspension of Compound 4 in the vehicle; and diabetics treated systemically by daily oral intubation of a 1 ml suspension of Compound 4 (in carboxymethylcellulose) at a dose of 30 mg/kg over the 7-day treatment protocol (D+30 mg/kg). At the end of this time period, the circular wounds were clinically assessed by measuring diameter of the wound in millimeters, blood samples were collected, the rats were sacrificed, and skin samples collected for histological/histochemical, and biochemical assessment as described below. • 1) On day 7 after inducing wound healing, the animals were anesthetized and blood samples collected for blood glucose (one Touch Ultra Glucometer; Johnson & Johnson, New Brunswick, N.J.) and Hemoglobin A1c (A1c Now+; Bayer Health Care, Sunnyvale, Calif.) measurements. • 2) Photographs were taken for clinical observations to assess wound closure. The % reduction of the wound surface was calculated by measuring the diameter (in millimeters) of each wound before and after the treatment protocol. • 3) Wound tissues on day 7 were excised from 3 sites per rat and pooled for biochemical analysis. […] The supernates were then dialyzed against the Tris-HCl, NaCl, CaCl2 buffer, and the proteinases partially purified by ammonium sulfate precipitation and examined for levels of MMP-2 (72 kD gelatinse) and MMP-9 (92 kD gelatinase) by gelatin zymography using denatured type I collagen (gelatin) as the substrate (6). • 4) The remaining wounds were assessed histologically & histochemically by Dr. Steve McClain (McClain Labs, Smithtown, N.Y.) as follows: Biopsies of each wound site were taken and included both the wound tissue and surrounding non-wounded tissue. […]
# collagen in wound tissue = assay: collagen fractions (hydroxyproline) in wound tissue of diabetic rats; assay type: in vivo, rat; details: wound tissue day 6
# Source text: Biochemical measurements were made on wound tissue 6 days after creating the standardized 6 mm diameter wounds in the various groups of rats including: (1) non-diabetic controls (NDC); (2) Diabetic (DM) rats treated topically with 0.25% curcumin; (3) DM treated with 1% curcumin; (4) DM treated with 0.25% Compound 4, and (5) DM rats treated with 1% Compound 4. The wound tissues from these five different groups were then hydrolyzed (after extraction; see below) to degrade the collagen to individual amino acids, and the amino acid unique to collagen, hydroxyproline, was measured by a commercial colorimetric assay. Prior to hydrolysis, the wound tissues were extracted (at 4° C. to maintain the triple-helical conformation of the collagen molecules) to obtain first the salt-soluble fraction, then the acid-soluble fraction, leaving the insoluble fraction.
# contact dermatitis = assay: poison ivy contact dermatitis on the arms of a human subject, topical; assay type: in vivo; details: Example 9
# Source text: The leaves of a poison ivy plant are applied to equally sized areas of the left and right arms of a human subject.
# [2] = test system: MMPs 1, 2, 3, 7, 8, 9, 12, 13 and 14; assay: activity against a battery of MMPs (summary in words); assay type: biochemical, human
# peritoneal macrophages = assay: cell migration (chemotaxis) assay of peritoneal macrophages; assay type: in vivo, rat; details: diabetic rats, oral 30 mg/kg daily, 21 days
# Procedure: (§1) Adult male Sprague-Dawley rats (body weight 300-350 g) were injected through the tail vein with either 0.9% saline (non-diabetic control) or with the same solution containing streptozotocin (70 mg/kg body weight) to induce diabetes. Non-diabetic rats served as normal controls. The diabetic rats were distributed into 2 experimental groups (3 rats per group). Urine glucose levels were measured weekly with Tes-Tape (Eli Lilly Inc.). One group of rats was treated by oral gavage of Compound 4 (30 mg/kg body weight) daily for 21 days; the Compound 4 was suspended in 2% carboxymethyl cellulose and polytron/homogenized. The normal & diabetic vehicle-treated (control) groups were oral gavaged with vehicle alone daily.
# (§2) Rat peritoneal macrophages were harvested with 10 ml RPMI 4 days after intraperitoneal injection of 10 ml of thioglycolate (3% wt/vol). Macrophages were then purified by density gradient centrifugation (lymphoprep) and cell numbers were counted in a hemocytometer. The cells were then tested in a cell migration assay (Cell BioLabs, Inc, CytoSelect 96-well with 5 um fluorometric format) using conditioned medium containing inflammatory mediators including MCP-1 from LPS-macrophages as a chemoattractant. The macrophages from different groups of rats were also plated onto 24 well-plates with and without p.g.LPS challenge for 24 hours in 37° C., 5% CO2. […]
# IL-6 = assay: cytokine production by peritoneal macrophages of orally treated diabetic rats in culture; assay type: in vivo, rat; details: oral 30 mg/kg daily, 21 days, culture with or without P. gingivalis LPS
# Procedure: as §1, §2
# IL-1β = assay: as above; assay type: in vivo, rat; details: oral 30 mg/kg daily, 21 days, culture with or without P. gingivalis LPS
# Procedure: as §1, §2
# MMP-12 = MMP-12 (Homo sapiens, UniProt P39900); assay: fluorimetric assay of MMP activity; assay type: biochemical; details: synthetic fluorescent peptide substrate Mca-Lys-Pro-Leu-Gly-Leu-Dpa-Ala-Arg-NH2
# MMP-12, sequence (P39900 106-470): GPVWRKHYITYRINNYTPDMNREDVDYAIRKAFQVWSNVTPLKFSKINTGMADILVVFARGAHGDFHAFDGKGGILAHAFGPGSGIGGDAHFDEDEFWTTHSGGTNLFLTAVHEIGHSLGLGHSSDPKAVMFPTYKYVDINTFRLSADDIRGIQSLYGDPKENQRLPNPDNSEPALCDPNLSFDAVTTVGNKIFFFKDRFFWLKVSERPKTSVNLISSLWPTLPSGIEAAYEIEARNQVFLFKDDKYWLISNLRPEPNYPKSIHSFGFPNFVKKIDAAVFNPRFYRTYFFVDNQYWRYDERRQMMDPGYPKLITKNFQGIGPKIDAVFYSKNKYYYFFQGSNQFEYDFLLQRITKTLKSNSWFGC
# MMP-9 = MMP-9 in conditioned media of peritoneal macrophages, gelatin zymography; assay type: in vivo, rat; details: diabetic rats, oral 30 mg/kg daily, 21 days; no LPS
# Procedure: as §1, §2
# MMP-13 = MMP-13 (Homo sapiens, UniProt P45452); assay: fluorimetric assay of MMP activity; assay type: biochemical; details: synthetic fluorescent peptide substrate Mca-Lys-Pro-Leu-Gly-Leu-Dpa-Ala-Arg-NH2
structure (smiles),measurement,setting,value
"O=C(/C=C/c1ccc(O)cc1)C(C(=O)/C=C/c1ccc(O)cc1)C(=O)Nc1ccccc1 [Compound 4, 1,7-Bis(4-hydroxyphenyl)-4-N-phenylaminocarbonylhepta-1E, 6E-dien-3,5-dione]",toxic effects,"[1]; 30 mg/kg body weight, diabetic rats",virtually no toxic effects
same,tolerability,[1]; topical (e.g. 1%) or systemic administration,well tolerated; also recorded: well tolerated and not toxic
same,Collagen Fractions (%) Acid-soluble,collagen in wound tissue; 0.25% topical,41.7%
same,Collagen Fractions (%) Insoluble,collagen in wound tissue; 0.25% topical,31.7%
same,Collagen Fractions (%) Salt-soluble,collagen in wound tissue; 0.25% topical,26.6%
same,Collagen Fractions (%) Acid-soluble,collagen in wound tissue; 1% topical,29.4%
same,Collagen Fractions (%) Insoluble,collagen in wound tissue; 1% topical,40.5%
same,Collagen Fractions (%) Salt-soluble,collagen in wound tissue; 1% topical,30.1%
same,itching and healing of contact dermatitis compared with Compound 2,contact dermatitis,stops itching sooner and heals quicker
same,anti-MMP activity (in words),[2],highly active
same,macrophage chemotactic activity,peritoneal macrophages,counteracted the suppression of macrophage chemotactic activity
same,IL-6 production by peritoneal macrophages,IL-6,decreased excessive inflammatory cytokine
same,IL-1β production by peritoneal macrophages,IL-1β,decreased excessive inflammatory cytokine
same,IC50,MMP-12,2000 ± 400 nM
same,MMP-9 levels in peritoneal macrophages,MMP-9,decreased
same,IC50,MMP-13,2700 ± 700 nM

# From patent US20160355465A1, “NOVEL MODIFIED CURCUMINS AND THEIR USES” (THE RESEARCH FOUNDATION OF STATE UNIVERSITY OF NEW YORK, priority 2011, published 2016)
